Reference: paper PMC9631343 (ACS Bio & Med Chem Au, 2022)

Assay: in vitro
Settings: African green monkey

With `O=c1[nH]cnc2c([C@@H]3N[C@H](CO)[C@@H](O)[C@H]3O)c[nH]c12` [forodesine] the CC50 was > 100 µM.

With `CC(C)Nc1nc2cc(Cl)c(Cl)cc2n1[C@H]1O[C@@H](CO)[C@H](O)[C@@H]1O` [maribavir] the CC50 was > 100 µM.

For `CC(C)C(=O)OC[C@H]1O[C@@H](n2ccc(NO)nc2=O)[C@H](O)[C@@H]1O` [molnupiravir], the CC50 was > 100 µM.

In the case of `COc1nc(N)nc2c1ncn2[C@@H]1O[C@H](CO)[C@@H](O)[C@@H]1O` [nelarabine], the CC50 is reported as > 100 µM.

For `CCC(CC)COC(=O)[C@H](C)N[P@](=O)(OC[C@H]1O[C@@](C#N)(c2ccc3c(N)ncnn23)[C@H](O)[C@@H]1O)Oc1ccccc1` [remdesivir], the CC50 was > 100 µM.

In the case of `CC(C)=CCNc1ncnc2c1ncn2[C@@H]1O[C@H](CO)[C@@H](O)[C@H]1O` [riboprine, N^6-(2-Isopentenyl)adenosine], the CC50 is reported as > 100 µM.

In the case of `OC[C@H]1O[C@@H](n2cnc3c(N[C@@H]4CCOC4)ncnc32)[C@H](O)[C@@H]1O` [tecadenoson], the CC50 is reported as > 100 µM.

With `Nc1ncnc2c1ncn2[C@@H]1O[C@H](CO)[C@@H](O)[C@@H]1O` [vidarabine, Arabinosyladenine] the CC50 was > 100 µM.
